# Measured values: patent US20120225852A1, “USE OF STEROID COMPOUNDS” (priority 2009, published 2012)
# Key:
# [1] = test system: purified CD4+ T cells from unprimed BALB/c mice; experiment: Purified CD4+ T cells stimulated with α-CD3/α-CD28; assay type: cell-based; details: non antigen-specific stimulation; FIG. 3
# Text: (§1) The decreased proliferative response of CD4^+ T cells was not due to increased cell death as evident by similar numbers of CD4^+ 7AAD^− cells in all cultures after flow-cytometric analysis (FIG. 4).
# [2] = test system: experimental autoimmune encephalomyelitis (EAE); experiment: MOG peptide-induced EAE, treatment from the day of EAE onset; assay type: in vivo, C57BL/6 mice; details: 2 mg/mouse i.p. daily from EAE onset until day 26
# Procedure: (§2) Tests were also carried out to discover whether DHEA and its spiro-analogs were protective after the onset of experimental autoimmune encephalomyelitis (EAE). For these tests, acute EAE was induced in C57BL/6 mice, as previously described. […] Mice were monitored daily in a blinded fashion for clinical symptoms (paralysis). Tissues (brain, spinal cord, DLNs) were collected in order to perform histological evaluation (staining with H&E on brain and spinal cord sections) and ex vivo cultures for measurement of T cell responses and cytokine release.
# [3] = test system: EAE in C57BL/6 Rag−/− recipients; experiment: Adoptive transfer of CD4+ T cells from treated EAE donors into C57BL/6 Rag-/- recipients; assay type: in vivo, C57BL/6 Rag−/− mice
# [4] = test system: established MOG peptide-induced EAE; experiment: Established MOG peptide-induced EAE, treatment from day 13; assay type: in vivo, C57BL/6 mice
# Text: (§3) Acute EAE was induced in C57BL/6 mice by immunizing the animals against the pathogenic myelin oligodendrocyte glycoprotein (MOG) peptide (amino acids 35-55). Mice were left untreated until disease symptoms were apparent (score 1-2) at around day 12. […] Mice were monitored daily in a blinded fashion for clinical symptoms (paralysis). Tissues (brain, spinal cord, DLNs) were collected in order to perform histological evaluation (staining with H&E on brain and spinal cord sections) and ex vivo cultures for measurement of T cell responses and cytokine release.
# [5] = test system: Lymph node (LN) cells from unprimed DO11.10 TCR Tg mice; experiment: OVA-stimulated lymph node cell culture, T cell proliferation; assay type: cell-based
# [6] = test system: response to OVA in EAE-induced mice; experiment: EAE mice treated for 15 days, then immunized with OVA/CFA; assay type: in vivo, C57BL/6 mice
# Procedure: Treatment stopped and mice were then injected with OVA/CFA (Complete Freund's Adjuvant).
# Instead, the response to a new antigen that the mice are exposed to is enhanced.
# naïve CD4+ T cells = experiment: Naive CD4+ T cells under Treg cell generating conditions; assay type: cell-based
# [7] = test system: ongoing EAE in recipient mice; experiment: Adoptive transfer of CD4+ T cells from treated EAE donors into recipients with ongoing EAE; assay type: in vivo
# [8] = test system: allergic airway inflammation; experiment: Mouse model of allergic asthma (OVA/alum sensitization, aerosolized OVA); assay type: in vivo, BALB/c mice
# Procedure: BALB/c mice were sensitized with 0.01 mg chicken ovalbumin (OVA) in 0.2 ml alum intraperitoneally on days 0 and 12, and were exposed to aerosolized OVA (5% for 20 min) on days 18-20.
# [9] = test system: MOG peptide-induced experimental autoimmune encephalomyelitis (EAE); experiment: MOG peptide-induced EAE, treatment from the day of EAE induction; assay type: in vivo, C57BL/6 mice
# Text: EAE is an autoimmune condition of the central nervous system (CNS) and results from infiltration of the central nervous system by destructive autoreactive T lymphocytes and subsequent demyelination and axonal and neuronal degeneration.
# Acute EAE was induced in C57BL/6 mice by immunizing them against the pathogenic myelin oligodendrocyte glycoprotein (MOG) peptide (amino acids 35-55). […] Mice were monitored daily in a blinded fashion for clinical symptoms (paralysis). Tissues (brain, spinal cord, DLNs) were collected in order to perform histological evaluation (staining with H&E on brain and spinal cord sections) and ex vivo cultures for measurement of T cell responses and cytokine release.
# [10] = test system: ongoing EAE in recipient mice; experiment: Adoptive transfer of DLN cells from treated EAE donors into recipients with ongoing EAE; assay type: in vivo
# Text: The donor DLN cells were obtained on day 17, which is the peak of disease for control mice. This protection was observed until day 28-30 when the mice were euthanized.
# [11] = test system: Draining lymph node cells from mice induced to develop EAE; experiment: Ex vivo cytokine secretion of draining lymph node cells to MOG35-55, mice treated from EAE onset; assay type: in vivo, C57BL/6 mice; details: treatment from EAE onset
# Procedure: as §2
# Also tested were the cytokine secretion of lymphoid cells (T cells) to MOG35-55 peptide from the mice that had been induced to develop EAE.
# [12] = test system: Draining lymph node cells from mice induced to develop EAE; experiment: Immune responses of mice with established EAE treated from day 13 (DLN cells to MOG35-55, cell subsets); assay type: in vivo, C57BL/6 mice
# Text: as §3
# [13] = test system: purified CD4+ T cells from unprimed DO11.10 TCR Tg mice; experiment: Purified CD4+ T cells with mitomycin C-treated splenocytes and OVA peptide 323-339; assay type: cell-based; details: OVA peptide 323-339; FIG. 2
# Text: as §1
# [14] = 2 mg/mouse i.p. daily from EAE induction, in comparison to the control, FIG. 7
structure (smiles),measurement,setting,value
"C[C@]12CC[C@H](O)CC1=CC[C@@H]1[C@@H]2CC[C@]2(C)C(=O)CC[C@@H]12 [DHEA, dehydroepiandrosterone]",effect on α-CD3/α-CD28 stimulated CD4+ T cells,[1],same suppressive effect
same,degree of paralysis,[2],decreased
same,clinical course,[2]; FIG. 11,improvement/reversal
same,mean maximum score,[2]; FIG. 12,decrease
same,ex vivo proliferation to MOG35-55,"[3]; DLN cells of Rag−/− recipients, FIG. 33a",substantially decreased
same,production of IFN-γ,"[3]; DLN cells of Rag−/− recipients, FIG. 33b",decreased production
same,production of IL-17,"[3]; DLN cells of Rag−/− recipients, FIG. 33c",decreased production
same,EAE scores induced in recipients,"[3]; after pertussis toxin injections, FIGS. 31 and 32",very low EAE scores
same,clinical course,"[4]; 2 mg/mouse i.p. daily from day 13, FIG. 16",significant improvement
same,mean maximum score,"[4]; 2 mg/mouse i.p. daily from day 13, FIG. 17",decrease
same,inflammation in the spinal cord,"[4]; 2 mg/mouse i.p. daily from day 13, FIG. 18",decreased inflammation
same,degree of paralysis,[4]; 2 mg/mouse i.p. daily from day 13 until day 26-28,significantly decreased
same,ongoing MOG peptide-induced EAE,"[4]; overall conclusion, treatment from day 13",suppressed
same,proliferation of the T cells that respond to the antigen,"[5]; LN cells stimulated with OVA, vs control RPMI, FIG. 1",significantly decreased
same,effect on T cell responses in general,[5]; overall conclusion of Example 1 (FIGS. 1-4),immunosuppressive effect
same,production of IFN-γ,[6]; after OVA/CFA immunization,increased
same,T cell response to OVA ex vivo (3H-Thymidine incorporation),"[6]; after OVA/CFA immunization, FIG. 40",substantially increased
same,EAE phenotype after end of treatment and OVA/CFA injection,[6]; in comparison to control mice,stable phenotype without any deterioration
same,protection from EAE,"[6]; treated 15 days from shortly after disease onset, then OVA/CFA",clearly protected
same,proliferation,"naïve CD4+ T cells; Treg cell generating conditions, 5 days, FIG. 39",increased
same,number of Foxp3+ Treg cells,"naïve CD4+ T cells; rIL-2, with or even without rTGF-β1, 5 days, FIG. 38",significant increase
same,mean maximum EAE score,"[7]; CD4+ T cell transfer into recipients with ongoing EAE, FIGS. 28 and 29",significant decrease
same,proliferation to MOG35-55 ex vivo,"[7]; DLN cells and splenocytes of recipients, FIG. 30",significantly decreased
same,levels of OVA-specific IgE,[8]; 2 mg/mouse,significantly decreased
same,levels of OVA-specific IgG1,[8]; 2 mg/mouse,significantly decreased
same,levels of OVA-specific IgG2a,[8]; 2 mg/mouse,significantly decreased
same,numbers of CD3+CD4+ CD25+ Foxp3+ T cells (T regulatory cells),[8]; 2 mg/mouse,substantially increased
same,numbers of suppressive CD11c+PDCA-1+ plasmacytoid dendritic cells (pDCs),[8]; 2 mg/mouse,substantially increased
same,numbers of eosinophils in the bronchoalveolar lavage (BAL),"[8]; 2 mg/mouse on days 0,1,2,12,13,14,18,19,20, vs PBS-treated mice, FIG. 14a",significantly decreased
same,numbers of lymphomononuclear cells in the bronchoalveolar lavage (BAL),"[8]; 2 mg/mouse, vs PBS-treated mice, FIG. 14a",significantly decreased
same,lung leukocytic infiltration,"[8]; 2 mg/mouse, FIG. 14b",significantly decreased
same,OVA-specific T cell proliferation,"[8]; draining lymph nodes, FIG. 14c",significantly decreased
same,"allergic airway inflammation, Th2 responses and B cell responses",[8]; overall conclusion of Example 3,suppress
same,degree of paralysis,"[9]; 2 mg/mouse i.p. daily from EAE induction until day 26, vs PBS",decreased
same,clinical course,"[9]; 2 mg/mouse i.p. daily from EAE induction until day 26, FIG. 6",improvement
same,mean maximum score,"[9]; 2 mg/mouse i.p. daily from EAE induction until day 26, FIG. 7",decrease
same,incidence of disease,[9]; [14],low incidence
same,onset of disease,[9]; [14],delayed onset
same,inflammation in the spinal cord,"[9]; 2 mg/mouse i.p. daily from EAE induction, H&E, FIG. 8",decreased inflammation
same,protection against MOG peptide-induced EAE,"[9]; overall conclusion, treatment from EAE induction",conferred protection
same,recovery of recipients,"[10]; DLN cell transfer, vs PBS-treated donors, FIG. 24",rapid recovery
same,mean maximum disease score,"[10]; DLN cell transfer, vs PBS-treated donors, FIG. 25",significant reduction
same,EAE development in recipients,"[10]; DLN cells of donors treated days 12-17, vs DLN cells from PBS-treated donors, FIG. 24",confer suppression
same,ex vivo proliferation to MOG35-55,"[10]; DLN cells of recipients, FIG. 26a",significantly decreased
same,levels of supernatant IFN-γ,"[10]; DLN cells of recipients, FIG. 26b",decreased levels
same,levels of supernatant IL-17,"[10]; DLN cells of recipients, FIG. 26c",decreased levels
same,recruitment of CD11c+ dendritic cells,"[10]; draining lymph nodes of recipients, FIG. 27a",substantially decreased
same,recruitment of IL-17 secreting T cells,"[10]; draining lymph nodes of recipients, FIG. 27b",substantially decreased
same,recruitment of CD4+ Foxp3+ regulatory T cells,"[10]; draining lymph nodes of recipients, FIG. 27c",increased
same,amounts of IL-10 produced,[11]; FIG. 13a,greatly increased
same,secretion of IFN-γ,[11]; FIG. 13b,substantially decreased
same,secretion of IL-17,[11]; FIG. 13c,substantially decreased
same,pathogenic immune response and symptoms,"[12]; overall conclusion, mice with ongoing EAE",significantly suppressed
same,proliferation to MOG35-55 peptide,"[12]; treatment from day 13, FIG. 19a",significantly decreased
same,amounts of IFN-γ produced,"[12]; treatment from day 13, FIG. 19b",substantially decreased
same,amounts of IL-17 produced,"[12]; treatment from day 13, FIG. 19c",substantially decreased
same,IL-10+ Treg cells,"[12]; treatment from day 13, FIG. 20",significantly increased
same,secretion of IL-10,"[12]; treatment from day 13, FIG. 19d",increased
same,proliferation,[13],significantly decreased
same,secretion of IFN-γ,[13],significantly decreased
same,secretion of IL-2,[13],significantly decreased
